Measurements taken from patent US20220389009A1, “SUBSTITUTED 1,6-NAPHTHYRIDINE INHIBITORS OF CDK5” (Goldfinch Bio, Inc., priority 2019, published 2022).

Experiments:
[1] = target: CDK2/CycA2 (Homo sapiens, UniProt P24941); experiment: CDK2 mobility shift assay (enzymatic activity of CDK2/CycA2); format: biochemical; settings: 1.25 nM CDK2/CycA2, 37 μM ATP, FL Peptide 18, 120 min at room temperature; read-out: CDK2 IC50
Method: (§1) Compound potency was measured via a change in the enzymatic activity of CDK5/p25, and optionally of CDK2/CycA2. Enzymes, CDK5/p25 and CDK2/CycA2, were sourced from Carna Biosciences (Cat #04-106 and 04-103, respectively). Test compound stocks were diluted in 100% DMSO and serially diluted 3-fold in a 384-well plate using a TECAN EVO200 (TECAN). Staurosporine was used as a reference control compound in all assays.
(§2) Twenty nL of compound were transferred into a 384-well plate (Greiner 781201) using an Echo550 (Labcyte Inc). Enzyme, ATP, and 10 mM MgCl2 were preincubated at room temperature with the compound in assay buffer (50 mM HEPES pH 7.5, 1 mM EGTA, 0.01% Brij-35, 0.05% BSA, 2 mM DTT) for 30 minutes. Peptide substrate (FL peptide 29 (Perkin Elmer) for CDK5/p25; FL Peptide 18 (Perkin Elmer) for CDK2/CycA2) was added to initiate the reaction. The final assay contained 0.154 nM CDK5/p25 or 1.25 nM CDK2/CycA2, […] (for CDK5/p25) or 37 μM (for CDK2/CycA2) ATP, and 1.5 μM of the appropriate peptide substrate. The final DMSO concentration was <1%.
(§3) The CDK5/p25 reaction was incubated at room temperature for 60 min. The CDK2/CycA2 reaction was incubated at room temperature for 120 min. The reactions were quenched by the addition of 70 μL stopping buffer containing 0.5 M EDTA. Samples were analyzed using the EZ Reader (Perkin Elmer).
(§4) The results were expressed as % vehicle, where % vehicle=100×(U−C2)/(C1−C2), where U is the signal of sample, C1 is the average of the high controls (signal with no compound added), and C2 is the average of low controls (signal with the buffer in place of enzyme). The ICso is determined by fitting the percentage of inhibition as a function of compound concentrations using a 4-parameter fit defined as follows.
(§5) Y=Bottom+(Top−Bottom)/(1+10^((LobIC50-X)*Hill Slope)), where X is the log of the compound concentration, Y is the % vehicle or response at X, Top and Bottom are the plateaus in the same units as Y, and the Hill's Slope is unitless, and the ICso is the half-maximal inhibitory concentration.

[2] = target: CDK5/p25 (Homo sapiens, UniProt Q00535); experiment: CDK5 mobility shift assay (enzymatic activity of CDK5/p25); format: biochemical; settings: for IC50: 0.154 nM CDK5/p25, FL peptide 29, 60 min at room temperature, read-out: CDK5 IC50; for CDK5/CDK2 specificity: fold more active against CDK5 than CDK2
Method: as §1, §2, §3, §4, §5

Sequence of CDK5/p25 (Q00535 whole entry): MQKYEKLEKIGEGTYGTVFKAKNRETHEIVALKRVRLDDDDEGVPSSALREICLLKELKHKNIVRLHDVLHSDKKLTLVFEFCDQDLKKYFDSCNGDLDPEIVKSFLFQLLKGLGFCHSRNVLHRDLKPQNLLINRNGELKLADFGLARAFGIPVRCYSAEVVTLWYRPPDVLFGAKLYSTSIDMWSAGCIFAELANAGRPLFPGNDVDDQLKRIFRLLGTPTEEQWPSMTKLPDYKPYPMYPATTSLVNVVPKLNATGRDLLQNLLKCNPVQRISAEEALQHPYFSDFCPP
Sequence of CDK5/p25 (Q15078 99-307 partner limits assumed): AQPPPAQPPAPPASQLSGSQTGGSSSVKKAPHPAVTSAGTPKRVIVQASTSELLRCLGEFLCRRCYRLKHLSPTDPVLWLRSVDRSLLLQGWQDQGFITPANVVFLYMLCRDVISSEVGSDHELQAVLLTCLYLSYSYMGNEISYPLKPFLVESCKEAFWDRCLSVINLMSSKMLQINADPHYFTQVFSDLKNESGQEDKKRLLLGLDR

Row | IC50 [1] [µM] | IC50 [2] [µM] | SMILES | CDK5/CDK2 specificity [2]
1 | > 1 | < 0.01 | Cc1cc(OCCC(N)=O)ccc1Nc1cc2nc(S(=O)(=O)C3CCN(C)CC3)ccc2cn1 [Compound 258] | +++ (greater than 100-fold more active against CDK5 than CDK2)
2 | 0.01 to 0.1 | < 0.01 | N[C@H]1CC[C@@H](Sc2ccc3cnc(Nc4ccc(-n5cccn5)cc4F)cc3n2)CC1 [Compound 121, N-[2-fluoro-4-(pyrazol-1-yl)phenyl]-2-[[(1s,4s)-4-aminocyclohexyl]sulfanyl]-1,6-naphthyridin-7-amine] | + (10-fold or less more active against CDK5 than CDK2)
3 | > 1 | 0.01 to 0.1 | CC(c1ccc2cnc(Nc3ccc(-n4ccc(C(=O)O)n4)cc3F)cc2n1)C1CCN(C)CC1 (stereo not drawn) [Compound 324] | +++ (greater than 100-fold more active against CDK5 than CDK2)
4 | > 1 | 0.1 to 1 | COC(c1ccc2cnc(Nc3ccc(-n4cccn4)cc3F)cc2n1)C1CCN(C)CC1 (single isomer, unassigned) [Compound 391, N-[2-fluoro-4-(pyrazol-1-yl)phenyl]-2-[methoxy(1-methylpiperidin-4-yl)methyl]-1,6-naphthyridin-7-amine] | ++ (greater than 10-fold and less than or equal to 100-fold more active against CDK5 than CDK2)
5 | > 1 | 0.01 to 0.1 | Cc1cc(C(=O)NC(C)C)ccc1Nc1cc2nc(S(=O)(=O)C3CCN(C)CC3)ccc2cn1 [Compound 265] | +++ (greater than 100-fold more active against CDK5 than CDK2)
6 | 0.1 to 1 | < 0.01 | CCN1CCC(S(=O)(=O)c2ccc3cnc(Nc4ccc(-n5cccn5)cc4F)cc3n2)CC1 [Compound 384] | +++ (greater than 100-fold more active against CDK5 than CDK2)
7 | 0.1 to 1 | < 0.01 | CN1CCC(S(=O)(=O)c2ccc3cnc(Nc4ccc(CN5CCOCC5)cc4)cc3n2)CC1 [Compound 261] | +++ (greater than 100-fold more active against CDK5 than CDK2)
8 | > 1 | 0.01 to 0.1 | CC(c1ccc2cnc(Nc3ccc(-c4cccnc4)cc3F)cc2n1)C1CCN(C)CC1 (stereo not drawn) [Compound 314] | ++ (greater than 10-fold and less than or equal to 100-fold more active against CDK5 than CDK2)
9 | 0.01 to 0.1 | < 0.01 | CN1CCC(/C(=N\O)c2ccc3cnc(Nc4ccc(-n5cccn5)cc4F)cc3n2)CC1 [Compound 375] | ++ (greater than 10-fold and less than or equal to 100-fold more active against CDK5 than CDK2)
10 | > 1 | 0.1 to 1 | CCC(c1ccc2cnc(Nc3ccc(-n4ccc(CO)n4)cc3F)cc2n1)C1CCN(C)CC1 (stereo not drawn) [Compound 246] | ++ (greater than 10-fold and less than or equal to 100-fold more active against CDK5 than CDK2)
11 | 0.1 to 1 | < 0.01 | COc1ccc(-c2ccc(Nc3cc4nc(S(=O)(=O)C5CCN(CC6COC6)CC5)ccc4cn3)c(F)c2)cc1 [Compound 331] | ++ (greater than 10-fold and less than or equal to 100-fold more active against CDK5 than CDK2)
12 | > 1 | 0.1 to 1 | OC(c1ccc2cnc(Nc3ccc(-n4cccn4)cc3F)cc2n1)C1(O)CCNCC1 (stereo not drawn) [Compound 209, 4-[(7-[[2-fluoro-4-(pyrazol-1-yl)phenyl]amino]-1,6-naphthyridin-2-yl) (hydroxy)methyl]piperidin-4-ol] | ++ (greater than 10-fold and less than or equal to 100-fold more active against CDK5 than CDK2)
13 | > 1 | 0.01 to 0.1 | COc1ccc(-c2ccc(Nc3cc4nc(C(C)C5CCN(C)CC5)ccc4cn3)c(F)c2)cc1 (stereo not drawn) [Compound 310] | ++ (greater than 10-fold and less than or equal to 100-fold more active against CDK5 than CDK2)
14 | > 1 | 0.1 to 1 | CN1CCC(C(C)(O)c2ccc3cnc(Nc4ccc(-c5cccnc5)cc4F)cc3n2)CC1 (stereo not drawn) [Compound 327] | ++ (greater than 10-fold and less than or equal to 100-fold more active against CDK5 than CDK2)
15 | 0.1 to 1 | 0.01 to 0.1 | CC(C)N1CCC(S(=O)(=O)c2ccc3cnc(Nc4ccc(-n5cccn5)cc4F)cc3n2)CC1 [Compound 380] | ++ (greater than 10-fold and less than or equal to 100-fold more active against CDK5 than CDK2)
16 | 0.1 to 1 | 0.1 to 1 | Nc1cccc(C(=O)Nc2cc3nc(SC4CCNCC4)ccc3cn2)c1 [Compound 136, 3-amino-N-[2-(piperidin-4-ylsulfanyl)-1,6-naphthyridin-7-yl]benzamide] | + (10-fold or less more active against CDK5 than CDK2)
17 | > 1 | 0.01 to 0.1 | OC(c1ccc2cnc(Nc3ccc(-n4cccn4)cc3F)cc2n1)C1CCNCC1 (stereo not drawn) [Compound 149, (7-[[2-fluoro-4-(pyrazol-1-yl)phenyl]amino]-1,6-naphthyridin-2-yl) (piperidin-4-yl)methanol] | ++ (greater than 10-fold and less than or equal to 100-fold more active against CDK5 than CDK2)
18 | > 1 | 0.01 to 0.1 | CC(C)(O)c1ccn(-c2ccc(Nc3cc4nc(S(=O)(=O)C5CCN(CC6COC6)CC5)ccc4cn3)c(F)c2)n1 [Compound 340] | ++ (greater than 10-fold and less than or equal to 100-fold more active against CDK5 than CDK2)
19 | 0.01 to 0.1 | < 0.01 | CN1CCC(C(C)(O)c2ccc3cnc(Nc4ccc(-c5ccc(=O)[nH]c5)cc4F)cc3n2)CC1 (stereo not drawn) [Compound 383] | ++ (greater than 10-fold and less than or equal to 100-fold more active against CDK5 than CDK2)
20 | 0.1 to 1 | < 0.01 | CN1CCC(S(=O)(=O)c2ccc3cnc(Nc4ccc5c(c4)C(=O)NCC5)cc3n2)CC1 [Compound 278] | ++ (greater than 10-fold and less than or equal to 100-fold more active against CDK5 than CDK2)
21 | 0.01 to 0.1 | < 0.01 | CN1CCC(S(=O)(=O)c2ccc3cnc(Nc4ccc(N5CCNC(=O)C5)cc4)cc3n2)CC1 [Compound 305] | ++ (greater than 10-fold and less than or equal to 100-fold more active against CDK5 than CDK2)
22 | 0.1 to 1 | < 0.01 | CN1CCC(S(=O)(=O)c2ccc3cnc(Nc4cccc(N5CCCC5=O)c4)cc3n2)CC1 [Compound 281] | ++ (greater than 10-fold and less than or equal to 100-fold more active against CDK5 than CDK2)
23 | > 1 | 0.1 to 1 | NC1CCN(C(=O)c2ccc3cnc(Nc4ccc(-n5cccn5)cc4F)cc3n2)C1 (stereo not drawn) [Compound 215, 2-(3-aminopyrrolidine-1-carbonyl)-N-[2-fluoro-4-(pyrazol-1-yl)phenyl]-1,6-naphthyridin-7-amine] | + (10-fold or less more active against CDK5 than CDK2)
24 | 0.01 to 0.1 | < 0.01 | Cc1cccc(Nc2cc3nc(S(=O)(=O)C4CCN(C)CC4)ccc3cn2)c1 [Compound 382] | +++ (greater than 100-fold more active against CDK5 than CDK2)
25 | 0.01 to 0.1 | < 0.01 | CN1CCC(S(=O)(=O)c2ccc3cnc(Nc4ccc(C(C)(C)C)cc4)cc3n2)CC1 [Compound 295] | ++ (greater than 10-fold and less than or equal to 100-fold more active against CDK5 than CDK2)
26 | 0.1 to 1 | < 0.01 | CN1CCC(C(C)(O)c2ccc3cnc(Nc4ccc(-c5cccn(C)c5=O)cc4F)cc3n2)CC1 (stereo not drawn) [Compound 352] | +++ (greater than 100-fold more active against CDK5 than CDK2)

Row | SMILES | IC50 [1] [µM] | IC50 [2] [µM] | CDK5/CDK2 specificity [2]
27 | OCc1ccn(-c2ccc(Nc3cc4nc(N(Cc5cn[nH]c5)C5CCNCC5)ccc4cn3)c(F)c2)n1 [Compound 287, [1-[3-fluoro-4-([2-[piperidin-4-yl(1H-pyrazol-4-ylmethyl)amino]-1,6-naphthyridin-7-yl]amino)phenyl]pyrazol-3-yl]methanol] | > 1 | 0.01 to 0.1 | ++ (greater than 10-fold and less than or equal to 100-fold more active against CDK5 than CDK2)
